In patent publication US20070280957A1, “Change of the Load State of Mhc Molecules” (priority 2004, published 2007):
“Also recorded” adds a separate entry of the source.

What was measured:
[1] = molecular target: T1, soluble HLA-DR1 (DRA1*0101, DRB1*0101) (Homo sapiens, UniProt P01903+P01911, A100R/D57E/F55L/F60I/F76Y/I96L/L162R/M171V/P40L/Q125E/R42F/V115G/Y59C); assay: Loading of empty soluble HLA-DR1 with biotinylated HA306-318 peptide, sandwich ELISA; assay type: biochemical
T1 construct: shortened α- and […]-chains without the cytoplasmatic and transmembrane portion of the MHC molecule; made in house; host or cells: S2 insect cells
Protocol: In order to monitor catalysis of the loading of HLA-DR molecules by compounds of formulae I, IA, II, III and IV1 to IV3, empty, soluble DR molecules were incubated with biotinylated, high-affinity peptide, and these were then detected in a sandwich ELISA for the MHC complexes.
All the batches were then adjusted to a final volume of 10 μl with 2% BSA-PO4^3− buffer (in the case of HLA-DR1 only with PO4^3− buffer). The reaction was started by incubation at 37° C. in a thermocycler. After 40 minutes, the incubation was terminated and the loading reaction was stopped by storage on ice and addition of 50 μl of ice-cold 1% BSA-PBS.
The detection of bound peptide was carried out by means of a sandwich ELISA. […] Between these steps, the plate was washed twice with PBS-0.05% Tween with the aid of a PW plate-washing device (Tecan Industries) and, before filling with fresh solution, all remaining liquid residues were removed by tapping on Scott®Natura paper towels (Hakle-Kimberly Deutschland GmbH). After blocking of non-specific binding sites, the plate was washed three times and filled with 50 μl/well of 1% BSA-PBS. 2×25 μl per reaction batch were transferred to the plate as double values and were carefully mixed thereon (total volume per well: 75 μl). From each filled series, a further 25 μl/well were then again titrated on the plate in a series of two-stage dilutions (final volume per well: 50 μl). The plates so filled were then stored for 2 hours at 4° C. under stationary conditions. Each plate was then washed six times as described above and filled with 80 μl/well of Eu^3+-streptavidin staining solution (europium-streptavidin stock solution diluted 1:10,000 with 1% BSA-PBS) and incubated for 30 minutes at room temperature (RT). After washing for a further eight times, 100 μl/well of fluorescence-activated solution (enhancer) were then added and the signal was measured by means of a Victor^2-multilabelcounter (Wallac Oy) at an excitation wavelength of 340 nm and an emission wavelength of 615 nm in time-resolving mode.
The following experiment was therefore carried out. One catalyst in a fixed concentration of 0.05 mM was introduced into each of a number of batches for loading HLA-DR1 with HA-biot. The same concentration of a second catalyst was then added to each batch. As controls, 1×1% DMSO was added and, as negative control, a reaction mixture was prepared with 2×1% DMSO. The reaction mixtures were then incubated for 40 minutes as already described and the load was measured in a sandwich ELISA.
The resulting load was then determined in an ELISA using biotinylated peptide (see FIG. 1).
The amount of peptide/MHC complexes formed within this time was then determined by means of an ELISA assay (capture antibody: anti-HLA-DR; detection: fluorescent-labelled streptavidin). The activities of the individual compounds were grouped on the basis of the dose/activity curves obtained thereby.

[2] = molecular target: T2, HLA-DR1 (DRB1*0101) (Homo sapiens, UniProt P01903+P01911, A100R/D57E/F55L/F60I/F76Y/I96L/L162R/M171V/P40L/Q125E/R42F/V115G/Y59C); assay: HLA-DR1-restricted T-cell response after catalysed loading of 721.221 cells (EvHA/X5, hCII19.3 T-cells); assay type: cell-based; conditions: HA306-318 (EvHA/X5) or CO260-273 (hCII19.3) loaded onto 721.221 cells
T2 construct: HLA-DR-expressing 721.221 cells; endogenous in cells; host or cells: 721.221 cells
Source text: In the present comparison test, the enhancement of the T-cell response by catalysis of the loading of HLA-expressing cells was investigated. […] Either HA306-318 (see also FIG. 3, left-hand panel) or CO260-273 (see also FIG. 3, right-hand panel) was used as peptide antigen. After the loading, the cells were washed and used to stimulate EvHA/X5 and hCII19.3 cells, respectively.
In order to investigate the catalysis of a HLA-DR1 (DRB1*0101)-restricted T-cell response by various catalytically active adamantyl compounds, dose-activity curves of the catalysis of a HLA-DR1 (DRB1*0101)-restricted T-cell response were prepared. The experiment was carried out analogously to Comparison Experiment 3.3, the peptide antigen HA306-318 being loaded onto 721.221 cells in order thereby to stimulate EvHA/X5 T-cells. […] Because the position of the dose-activity curves is evidently also determined by the side chain, a modulating activity can be attributed thereto.

[3] = molecular target: T3, HLADR2 (DRB1*1501) (Homo sapiens, UniProt P01903+P01911); assay: HLA-DR2-restricted T-cell response (08073 T-cells, MGAR cells) after catalysed loading; assay type: cell-based; conditions: MBP86-100, 08073 T-cells
T3 construct: endogenous in cells; host or cells: MGAR cells
Protocol: (§1) For evaluation, dose-activity curves of a HLA-DR4-restricted (FIG. 4, left-hand panel) and a HLA-DR2-restricted T-cell response (FIG. 4, right-hand panel) were prepared.

[4] = test system: DCs from HLA-DR1 (DRB1*0101)-transgenic mice; assay: Loading of dendritic cells with HA306-318 and DC-mediated T-cell response; assay type: cell-based
Protocol: Dendritic cells ([…]) are one of the most important sub-groups of “professional” antigen-presenting cells. Therefore, in the present example, DCs from HLA-DR1 (DRB1*0101)-transgenic mice were used, the DCs being loaded for 4 hours with biotinylated HA306-318 peptide. Then, in order to determine the peptide load, the cells were stained with streptavidin-APC (SA-APC) and also with anti-HLA-DR and analysed by continuous-flow cytometry (FIG. 14A).

[5] = molecular target: HLA-DR2 (DRB1*1501; β86V) wild-type molecule (Homo sapiens, UniProt P01903+P01911); assay: Catalysis of peptide binding to HLA-DR2 wild-type molecule on fibroblast cells
Protocol: The test was carried out as described under Comparison Test 3.3.

[6] = molecular target: HLA-DR4 (DRB1*0401) (Homo sapiens, UniProt P01903+P01911, A100K/A169T/F76Y/I96L/K127E/L162R/M171V/N62H/P40V/Q125Y/R42H/S133A/S149N/S66Y/V115G/V209L/W38E); conditions: HA306-318, 8475/94 T-cells
Protocol: as §1

[7] = test system: HLA-DR molecules with a deep or flat P1 pocket (β86G and β86V); assay: T-cell assays on HLA-DR molecules with a deep or flat P1 pocket; assay type: cell-based, human; conditions: dose-activity curves
Protocol: (§2) In the following, the catalysis of HLA loading by pCP was determined for the purposes of comparison. […] These dose-activity curves show the activity of the two catalysts on HLA-DR molecules with a deep or flat P1 pocket {β86G and β86V} as well as on the mouse MHC class II molecules H2-Ek and H2-Ak.

[8] = test system: H2-E^k; assay: T-cell assay on mouse MHC class II molecule H2-E; assay type: cell-based; conditions: T-cell assays
Protocol: as §2

[9] = molecular target: H2-A^k (Mus musculus, UniProt P01910+P06343); assay: T-cell assay on mouse MHC class II molecule H2-A; assay type: cell-based; conditions: T-cell assays
Protocol: as §2

Sequence of H2-A^k (P01910 24-256): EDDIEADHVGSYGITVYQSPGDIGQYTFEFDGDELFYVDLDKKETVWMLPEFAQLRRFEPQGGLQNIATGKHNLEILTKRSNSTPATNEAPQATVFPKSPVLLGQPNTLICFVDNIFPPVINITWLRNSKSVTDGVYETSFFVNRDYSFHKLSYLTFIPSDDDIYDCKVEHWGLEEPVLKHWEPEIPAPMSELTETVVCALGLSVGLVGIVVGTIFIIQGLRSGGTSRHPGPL
Sequence of H2-A^k (P06343 28-263): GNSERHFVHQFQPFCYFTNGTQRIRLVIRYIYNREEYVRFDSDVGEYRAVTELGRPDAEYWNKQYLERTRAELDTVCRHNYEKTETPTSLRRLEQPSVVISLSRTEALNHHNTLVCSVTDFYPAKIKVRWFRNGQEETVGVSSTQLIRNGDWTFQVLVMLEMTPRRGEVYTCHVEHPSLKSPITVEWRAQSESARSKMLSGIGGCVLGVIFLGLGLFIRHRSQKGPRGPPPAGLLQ

Row | catalytic activity in the ELISA [1] | immune response of HLA-DR1-restricted T-cells [2] | catalysis of the binding of MBP86-100 to HLA-DR2 wild-type molecule [5] | SMILES | HLA-DR2-restricted T-cell response [3] | HA306-318 peptide concentration that triggers the T-cell response reached at 100 ng/ml without catalyst ([4]; 250 μM catalyst) | peptide signal on the surface of the DCs ([4]; 250 μM, 4 hours, biotinylated HA306-318) | strength of T-cell responses vs DCs loaded without catalyst ([4]; DCs loaded with antigen in the presence of catalyst) | HLA-DR4-restricted T-cell response [6] | activity on HLA-DR molecules with deep or flat P1 pocket [7] | effect on H2-E molecules [8] | effect on H2-A molecules [9]
1 | substantially greater catalytic activity | markedly enhanced | unable to effect catalysis | OCCC12CC3CC(CC(C3)C1)C2 [I 1, 2-(1-adamantyl)-ethanol] | unable to effect catalysis | less than 10 ng/ml | markedly stronger peptide signal | up to 15 times |  |  |  | 
2 |  |  |  | Oc1ccc(Cl)cc1 [pCP, p-chlorophenol] | enhancing effect on all the HLA-DR molecules investigated |  |  |  | enhancing effect on all the HLA-DR molecules investigated | no dependence on the […]86 dimorphism; also recorded: independent of the depth of the P1 pocket | no effect | no effect
